# ± gives the standard deviation of the averaged measurements.
# Experiments:
# MK0752 = compound: O=C(O)CC[C@H]1CC[C@@](c2cc(F)ccc2F)(S(=O)(=O)c2ccc(Cl)cc2)CC1 [MK0752]; assay: surviving fraction relative to DMSO-only wells; higher = less growth inhibition; settings: exposure time: 5 days
# In short: (§1)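 Log-phase tumour cell lines, 250–500 cells per well in 384-well plates, received inhibitors at 0.5, 1, 5, 10, 50, 100, 500 and 1000 nM continuously for five days, starting 24 hours after seeding. Viability was quantified with CellTiter-Glo luminescence and normalised to the median of DMSO-only wells to give surviving fraction. Three screens were run per line, and a line stayed in only with replicate Pearson r >0.7 and median Z' >0.3.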
# ERLOTINIB = compound: C#Cc1cccc(Nc2ncnc3cc(OCCOC)c(OCCOC)cc23)c1 [ERLOTINIB]; assay: as above; settings: exposure time: 5 days
# In short: as §1
Test System,surviving fraction (MK0752; 0.5 nM),surviving fraction (MK0752; 1 nM),surviving fraction (MK0752; 5 nM),surviving fraction (MK0752; 10 nM),surviving fraction (MK0752; 50 nM),surviving fraction (MK0752; 100 nM),surviving fraction (MK0752; 500 nM),surviving fraction (MK0752; 1000 nM),surviving fraction (ERLOTINIB; 0.5 nM),surviving fraction (ERLOTINIB; 1 nM),surviving fraction (ERLOTINIB; 5 nM),surviving fraction (ERLOTINIB; 10 nM),surviving fraction (ERLOTINIB; 50 nM),surviving fraction (ERLOTINIB; 100 nM),surviving fraction (ERLOTINIB; 500 nM),surviving fraction (ERLOTINIB; 1000 nM)
SG43 HEADNECK,0.854 ± 0.3,0.901 ± 0.056,1.07 ± 0.43,0.862 ± 0.29,1.03 ± 0.18,0.934 ± 0.16,1.61 ± 0.055,1.08 ± 0.19,1.06 ± 0.2,0.978 ± 0.049,0.882 ± 0.18,0.734 ± 0.17,0.689 ± 0.13,0.458 ± 0.16,0.265 ± 0.032,0.335 ± 0.097
RDES SOFT TISSUE,1.27 ± 0.1,1.241 ± 0.0096,1.17 ± 0.1,1.21 ± 0.18,1.03 ± 0.15,1.18 ± 0.29,0.97 ± 0.097,0.998 ± 0.12,1.21 ± 0.057,1.28 ± 0.14,1.12 ± 0.18,1.27 ± 0.015,–,1.28 ± 0.1,1.24 ± 0.025,1.32 ± 0.1
SKBR3 BREAST,0.854 ± 0.14,1.05 ± 0.18,1.02 ± 0.06,0.917 ± 0.086,1.11 ± 0.092,1.08 ± 0.05,0.961 ± 0.11,1.06 ± 0.11,1.11 ± 0.13,1.1 ± 0.15,1.07 ± 0.15,1.15 ± 0.1,1.11 ± 0.024,1.05 ± 0.08,1.04 ± 0.15,0.874 ± 0.06
OS25HAL BONE,1 ± 0.016,1.04 ± 0.029,1.022 ± 0.0072,0.99 ± 0.04,1.09 ± 0.0091,1.1 ± 0.048,1.02 ± 0.057,1.07 ± 0.02,0.997 ± 0.016,1.04 ± 0.048,1.02 ± 0.024,–,1.09 ± 0.063,1.17 ± 0.043,1.09 ± 0.027,1 ± 0.035
S68 BREAST,0.684 ± 0.15,0.975 ± 0.11,0.912 ± 0.11,0.96 ± 0.28,0.94 ± 0.094,0.989 ± 0.058,0.919 ± 0.19,1.04 ± 0.27,1.05 ± 0.32,1.07 ± 0.37,0.808 ± 0.13,1.15 ± 0.036,1.14 ± 0.25,1.11 ± 0.3,0.743 ± 0.079,0.564 ± 0.03
CME SYNOVIAL,1.27 ± 0.23,1.31 ± 0.15,1.29 ± 0.09,1.39 ± 0.029,1.46 ± 0.22,1.47 ± 0.2,1.24 ± 0.11,1.34 ± 0.14,1.29 ± 0.069,1.29 ± 0.052,1.32 ± 0.091,1.33 ± 0.17,1.44 ± 0.17,1.36 ± 0.12,1.29 ± 0.17,1.16 ± 0.17
CHLA90 AUTONOMIC GANGLIA,0.984 ± 0.034,1.05 ± 0.039,1.05 ± 0.04,1.009 ± 0.0045,1.01 ± 0.026,0.952 ± 0.044,1.1 ± 0.037,1.09 ± 0.018,1.01 ± 0.059,0.963 ± 0.12,–,0.94 ± 0.041,0.984 ± 0.09,0.948 ± 0.079,0.856 ± 0.057,0.88 ± 0.036
ASKA SYNOVIAL,1.12 ± 0.023,1.16 ± 0.02,1.24 ± 0.038,1.22 ± 0.025,1.22 ± 0.11,1.23 ± 0.1,1.14 ± 0.087,1.14 ± 0.017,1.12 ± 0.047,1.15 ± 0.07,1.18 ± 0.06,1.19 ± 0.036,–,1.15 ± 0.067,1.09 ± 0.033,0.987 ± 0.099
KPD BONE,0.998 ± 0.054,0.986 ± 0.046,1.12 ± 0.042,1.05 ± 0.035,1.053 ± 0.0087,1.1 ± 0.073,0.951 ± 0.067,0.915 ± 0.06,1.07 ± 0.11,1.03 ± 0.042,1.06 ± 0.076,1.07 ± 0.075,1.18 ± 0.035,1.11 ± 0.035,1.07 ± 0.11,1.05 ± 0.096
NY BONE,1.04 ± 0.025,1.07 ± 0.03,1.11 ± 0.017,1.11 ± 0.052,1.07 ± 0.036,1.1 ± 0.02,1.02 ± 0.042,1.06 ± 0.034,1.01 ± 0.019,0.963 ± 0.029,–,1.05 ± 0.037,–,–,0.983 ± 0.01,–
MDAMB468 BREAST,1.03 ± 0.085,1.01 ± 0.074,1.1 ± 0.035,1.07 ± 0.07,1.17 ± 0.023,1.17 ± 0.028,1.07 ± 0.035,1.1 ± 0.035,1.06 ± 0.052,0.995 ± 0.038,1.14 ± 0.072,1.05 ± 0.035,1.15 ± 0.12,1.105 ± 0.011,0.902 ± 0.06,0.748 ± 0.04
BT549 BREAST,1.08 ± 0.14,1.09 ± 0.14,1.1 ± 0.18,1.11 ± 0.15,0.986 ± 0.1,1.04 ± 0.07,0.89 ± 0.095,1.03 ± 0.075,0.973 ± 0.036,1.01 ± 0.15,1.06 ± 0.11,1.1 ± 0.12,1.19 ± 0.071,1.22 ± 0.047,1.13 ± 0.03,1.03 ± 0.069
SCC90 HEADNECK,1.19 ± 0.014,1.11 ± 0.15,1.24 ± 0.11,1.25 ± 0.12,1.11 ± 0.064,1.13 ± 0.11,1.03 ± 0.093,1.11 ± 0.091,1.1 ± 0.091,1.1 ± 0.011,1.13 ± 0.038,1 ± 0.036,0.94 ± 0.11,0.82 ± 0.086,0.585 ± 0.049,0.534 ± 0.057
U2OS BONE,1.05 ± 0.06,1.06 ± 0.015,1.08 ± 0.019,1.08 ± 0.034,1.1 ± 0.075,1.18 ± 0.031,1.02 ± 0.041,1.04 ± 0.058,1.06 ± 0.016,–,–,–,1.11 ± 0.015,1.04 ± 0.028,1.02 ± 0.014,–
SUM149.B1*.S BREAST,1.11 ± 0.05,1.12 ± 0.044,1.1 ± 0.041,1.117 ± 0.004,1.18 ± 0.046,1.2 ± 0.029,1.03 ± 0.045,1.06 ± 0.068,1.11 ± 0.071,1.12 ± 0.021,1.09 ± 0.065,1.09 ± 0.017,1.15 ± 0.048,1.08 ± 0.013,1.07 ± 0.069,1.08 ± 0.079
MG63 BONE,1.07 ± 0.047,1.07 ± 0.033,1.11 ± 0.037,1.08 ± 0.022,1.13 ± 0.055,1.1 ± 0.029,0.987 ± 0.029,0.955 ± 0.02,–,1.08 ± 0.041,1.12 ± 0.014,1.1 ± 0.019,1.14 ± 0.045,1.1 ± 0.047,1.07 ± 0.066,–
MDAMB134 BREAST,1.08 ± 0.067,1.14 ± 0.093,0.96 ± 0.16,1.16 ± 0.079,0.922 ± 0.035,1.09 ± 0.14,1 ± 0.063,0.934 ± 0.014,–,0.92 ± 0.024,0.899 ± 0.018,0.91 ± 0.059,1.13 ± 0.033,1.15 ± 0.17,–,1.08 ± 0.088
SG32 HEADNECK,1.11 ± 0.091,1.2 ± 0.039,1.26 ± 0.085,1.23 ± 0.11,1.21 ± 0.23,1.18 ± 0.039,0.972 ± 0.14,1.05 ± 0.086,1.14 ± 0.11,1.11 ± 0.092,1.1 ± 0.29,1.03 ± 0.18,1.12 ± 0.14,1.11 ± 0.092,0.795 ± 0.067,1.26 ± 0.28
HCC70 BREAST,1.1 ± 0.079,1.07 ± 0.05,1.132 ± 0.01,1.08 ± 0.029,1.11 ± 0.073,1.08 ± 0.13,1.03 ± 0.055,0.924 ± 0.074,1.1 ± 0.094,–,1.15 ± 0.071,1.06 ± 0.097,1.03 ± 0.066,0.992 ± 0.022,1.03 ± 0.044,0.952 ± 0.096
SIHA CERVIX,1.1 ± 0.046,1.15 ± 0.024,1.12 ± 0.044,1.15 ± 0.053,1.15 ± 0.025,1.21 ± 0.085,1.16 ± 0.11,1.14 ± 0.051,1.1 ± 0.05,1.075 ± 0.0096,1.12 ± 0.074,–,1.1 ± 0.067,1.08 ± 0.099,–,1.06 ± 0.038
HSSYII SYNOVIAL,0.985 ± 0.056,1 ± 0.056,1.03 ± 0.063,1.02 ± 0.059,1.018 ± 0.0035,1.01 ± 0.017,0.978 ± 0.029,0.955 ± 0.046,0.966 ± 0.066,1.03 ± 0.036,1.02 ± 0.058,1.06 ± 0.031,1.03 ± 0.062,1.01 ± 0.049,1.02 ± 0.063,1 ± 0.076
